Measured values taken from US7384934B2, “Piperazine substituted aryl benzodiazepines” (Eli Lilly and Company, priority 2002, dated 2008).
Counter-ions that a name gives are not always drawn.

test system: not given; assay: not given; settings: not given

Row | SMILES | melting point [°C]
1 | COCC[C@H]1CN(C2=Nc3ccccc3Nc3ccc(C(F)(F)F)cc32)CCN1 [Example 202, (S)-2-Trifluoromethyl-11-[3-(2-methoxy-ethyl)-piperazin-1-yl]-5H-dibenzo[b,e][1,4]diazepine] | 71 to 82
2 | CCOCC[C@H]1CN(C2=Nc3cc(F)ccc3Nc3sc(C)cc32)CCN1C.Cl.Cl | 193 to 195
3 | CCOCC[C@H]1CN(C2=Nc3ccc(F)cc3Nc3sc(C)cc32)CCN1C.Cl | 180 to 182
4 | COCC[C@H]1CN(C2=Nc3ccc(Cl)cc3Nc3sc(C)cc32)CCN1C (as salt: hydrochloride) [Example 291, (S)-6-Chloro-10-[3-(2-methoxy-ethyl)-4-methyl-piperazin-1-yl]-2-methyl-4H-3-thia-4,9-diaza-benzo[f]azulene dihydrochloride] | 174 to 176
5 | Cc1cc2c(s1)Nc1ccccc1N=C2N1CCN(C)[C@@H](CO)C1 [Example 259, (R)-[1-Methyl-4-(2-methyl-4H-3-thia-4,9-diaza-benzo[f]azulen-10-yl)-piperazin-2-yl]-methanol] | 118 to 124
6 | COCC[C@H]1CN(C2=Nc3cc(Cl)ccc3Nc3sc(C)cc32)CCN1C (as salt: hydrochloride) [Example 292, (S)-7-Chloro-10-[3-(2-methoxy-ethyl)-4-methyl-piperazin-1-yl]-2-methyl-4H-3-thia-4,9-diaza-benzo[f]azulene dihydrochloride] | 200 to 202
7 | COCC[C@H]1CN(C2=Nc3ccccc3Nc3ccc(Cl)cc32)CCN1C (as salt: hydrochloride) | 205
8 | Cc1cc2c(s1)Nc1cc(F)ccc1N=C2N1CCN(C)[C@@H](CCO)C1.Cl.Cl | 230
9 | CSCC[C@H]1CN(C2=Nc3ccc(F)cc3Nc3sc(C)cc32)CCN1C.Cl.Cl | 194
10 | COCC[C@H]1CN(C2=Nc3ccccc3Nc3ccc(C(F)(F)F)cc32)CCN1C [Example 221, (S)-2-Trifluoromethyl-11-[3-(2-methoxy-ethyl)-4-methyl-piperazin-1-yl]-5H-dibenzo[b,e][1,4]diazepine] | 48 to 56
11 | Cc1cc2c(s1)Nc1ccccc1N=C2N1CCN(C)[C@@H](COc2ccccc2)C1 [Example 265, (R)-10-(4-Methyl-3-phenoxymethyl-piperazin-1-yl)-2-methyl-4H-3-thia-4,9-diaza-benzo[f]azulene] | 74 to 88
12 | COCC[C@H]1CN(C2=Nc3ccccc3Nc3ccc(C(C)C)cc32)CCN1 [Example 200, (S)-2-Isopropyl-11-[3-(2-methoxy-ethyl)-piperazin-1-yl]-5H-dibenzo[b,e][1,4]diazepine] | 158 to 160

target: T1, Dopamine D2 receptor (Homo sapiens, UniProt P14416); assay: Dopamine D2 receptor binding assay ([125I]iodospiperone); settings: relative Ki scale of Table 5; read-out: Relative D2 Receptor Binding Affinity Ki
T1 construct: purchased Receptor Biology (now owned by NEN) RBHD2CM
Protocol: The assay buffers used are 50 mM Tris-HCl pH 7.4, 120 mM NaCl, 5 mM KCl, 5 mM MgCl2, 1 mM EDTA for the Dopamine D2s receptor binding assay. […] The membranes used are from Receptor Biology (now owned by NEN), Cat # RBHD2CM for the D2 receptor.
Compounds are obtained as 10 mM stocks in 100% DMSO. They are diluted to 1 mM in 100% DMSO by adding 180 μL DMSO to 20 μL of stock in 96 well plates using a multidrop. […] This is done using a TECAN robot.
The radioligand is diluted in assay buffer to provide 0.1 nM for the D2 assay. Each vial of membranes is diluted up to 92 mL in assay buffer. The final assay volume is 250 μL consisting of 210 μl of diluted membranes, 20 μL of compound or 10% DMSO for total binding, and 20 μL of diluted radioligand. The compounds are transferred from drug dilution plates into coming 96 well assay plates using a 96 well Multimek pipettor. Radioligand and membranes are added to assay plates using multidrop pipettors. Non-specific binding is determined in wells containing a final concentration of 5 μM haloperidol. The final drug concentration range in half logs is from 10 μM down to 0.1 nM.
After addition of drug, membrane, and ligand, the plates are incubated for 2 hours at room temperature. During this time 96 well Millipore filter plates (MAFBNOB50) are soaked for a least 30 minutes with 200 μL per well of 0.5% polyethyleneimine.
The 0.5% PEI is removed from filterplate wells using a TiterTek MAP aspirator and 200 μL of the incubation mixture is transferred from the incubation plate to the filterplate after mixing. This transfer is done using the 96 tip Mutimek pipettor. After transfer to the filterplate filterplates are extracted and ished twice with 220 μL per well of cold buffer on the MAP aspirator. The peel away bottoms are removed from the filterplates and 60 μL per well of microscint 20 scintillation fluid is added per well using a multidrop. […]

T1 sequence (P14416 1-414 isoform P14416-2): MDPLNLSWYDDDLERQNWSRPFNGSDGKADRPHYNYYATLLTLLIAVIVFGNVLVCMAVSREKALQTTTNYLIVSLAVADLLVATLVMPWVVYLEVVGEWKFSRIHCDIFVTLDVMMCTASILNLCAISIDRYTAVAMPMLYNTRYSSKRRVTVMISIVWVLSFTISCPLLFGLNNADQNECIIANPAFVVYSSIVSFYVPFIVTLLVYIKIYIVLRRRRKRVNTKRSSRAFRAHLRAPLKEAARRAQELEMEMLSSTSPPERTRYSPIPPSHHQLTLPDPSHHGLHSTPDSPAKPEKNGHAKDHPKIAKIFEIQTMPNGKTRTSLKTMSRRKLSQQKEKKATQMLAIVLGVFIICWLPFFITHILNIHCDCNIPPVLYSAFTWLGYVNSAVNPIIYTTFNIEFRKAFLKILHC

Row | SMILES | Ki [µM]
13 | COCC[C@H]1CN(C2=Nc3ccccc3Nc3sc(C4CCCC4)nc32)CCN1C [Example 331, (S)-10-[3-(2-Methoxyethyl)-4-methylpiperazin-1-yl]-2-cyclopentyl 4H-3-thia-1,4,9-triazabenzo[f]azulene dihydrochloride] | 0.01 to 0.1
14 | CCOC(=O)c1nc2c(s1)Nc1ccccc1N=C2N1CCN(C)[C@@H](CCOC)C1 [Example 333, (S)-10-[3-(2-Methoxy-ethyl)-4-methyl-piperazin-1-yl]-4H-3-thia-1,4,9-triaza-benzo[f]azulene-2-carboxylic acid ethyl ester dihydrochloride] | 0.1 to 1
15 | COCC[C@H]1CN(C2=Nc3ccccc3Nc3sc(C(F)F)nc32)CCN1C [Example 336, (S)-10-[3-(2-Methoxy-ethyl)-4-methyl-piperazin-1-yl]-2-difluoromethyl 4H-3-thia-1,4,9-triaza-benzo[f]azulene] | < 0.01
16 | CC(C)c1nc2c(s1)Nc1ccccc1N=C2N1CCN[C@@H](CC(C)(C)O)C1 [Example 367, (S)-1-[4-(2-Isopropyl-4H-3-thia-1,4,9-triazabenzo[f]azulene-10-yl)-piperazin-2-yl]-2-methylpropan-2-ol dihydrochloride] | < 0.01
17 | CCCc1nc2c(s1)Nc1ccccc1N=C2N1CCN[C@@H](CCOC)C1 [Example 304, (S)-10-[3-(2-Methoxy-ethyl)-piperazin-1-yl]-2-propyl-4H-3-thia-1,4,9-triaza-benzo[f]azulene] | < 0.01
18 | COCC[C@H]1CN(C2=Nc3ccccc3Nc3sc(CO)nc32)CCN1 [Example 312, (S)-10-[3-(2-Methoxy-ethyl)-piperazin-1-yl]-4H-3-thia-1,4,9-triaza-benzo[f]azulene-2-yl-methanol] | 0.1 to 1
19 | CCOC(=O)c1nc2c(s1)Nc1ccccc1N=C2N1CCN[C@@H](CCOC)C1 [Example 313, (S)-10-[3-(2-Methoxy-ethyl)-piperazin-1-yl]-4H-3-thia-1,4,9-triaza-benzo[f]azulene-2-carboxylic acid ethyl ester] | 0.1 to 1
20 | Cc1cc2c(s1)Nc1ccccc1N=C2N1CCN(C)[C@@H](CCOc2ccccc2)C1 [Example 269, (S)-10-[4-Methyl-3-(2-phenoxyethyl)piperazin-1-yl]-2-methyl-4H-3-thia-4,9-diazabenzo[f]azulene dihydrochloride] | 0.01 to 0.1
21 | CCOCC[C@H]1CN(C2=Nc3ccccc3Nc3sc(C)nc32)CCN1 [Example 302, (S)-10-[3-(2-Ethoxyethyl)-piperazin-1-yl]-2-methyl-4H-3-thia-1,4,9-triazabenzo[f]azulene] | 0.01 to 0.1
22 | COCC[C@H]1CN(C2=Nc3ccccc3Nc3sc(C(F)(F)F)nc32)CCN1C [Example 334, (S)-10-[3-(2-Methoxy-ethyl)-4-methyl-piperazin-1-yl]-2-trifluoromethyl-4H-3-thia-1,4,9-triaza-benzo[f]azulene] | < 0.01
23 | COCC[C@H]1CN(C2=Nc3ccccc3Nc3sc(C(F)(F)F)nc32)CCN1CCO [Example 353] | 0.01 to 0.1
24 | Cc1cc2c(s1)Nc1ccccc1N=C2N1CCN(C)[C@@H](CC(C)(C)O)C1 [Example 370, (S)-2-Methyl-1-[1-methyl-4-(2-methyl-4H-3-thia-4,9-diazabenzo[f]azulene-10-yl)-piperazin-2-yl]-propan-2-ol dihydrochloride] | 0.1 to 1
25 | COCC[C@H]1CN(C2=Nc3ccccc3Nc3cc(C)ccc32)CCN1 [Example 198, (S)-3-Methyl-11-[3-(2-methoxy-ethyl)-piperazin-1-yl]-5H-dibenzo[b,e][1,4]diazepine] | > 1
26 | COC(C)C[C@H]1CN(C2=Nc3ccccc3Nc3sc(C)cc32)CCN1C (mixture of isomers) [Example 360, 10-[3(S)-(2(S)-Methoxypropyl)-4-methylpiperazin-1-yl]-2-methyl-4H-3-thia-4,9-diazabenzo[f]azulene dihydrochloride and 10-[3(S)-(2(R)-Methoxypropyl)-4-methylpiperazin-1-yl]-2-methyl-4H-3-thia-4,9-diazabenzo[f]azulene dihydrochloride] | 0.1 to 1
27 | COCC[C@H]1CN(C2=Nc3ccccc3Nc3sc(C(F)F)nc32)CCN1 [Example 316, (S)-10-[3-(2-Methoxy-ethyl)-piperazin-1-yl]-2-difluoromethyl-4H-3-thia-1,49-triaza-benzo[f]azulene] | < 0.01
28 | COCC[C@H]1CN(C2=Nc3ccccc3Nc3sc(C(F)(F)F)nc32)CCN1CCCO [Example 355, (S)-3-[2-(2-Methoxy-ethyl)-4-(2-trifluoromethyl-4H-3-thia-1,4,9-triaza-benzo[f]azulene-10-yl)-piperazin-1-yl]-propan-1-ol] | 0.01 to 0.1
